From patent US9267949B2, “Alkylamino BODIPY dyes as selective fluorescent probes for proteins and mouse embryonic stem cells” (National University of Singapore, priority 2011, dated 2016)

Assays:
[1] = Spectroscopic properties of the BDM library (absorbance and emission maxima); type: physicochemical
[2] = Quantum yield measurements; type: physicochemical; details: referred to Rhodamine B in EtOH, excitation 510 nm, emission integrated 540-800 nm
Experimental: Quantum yields were calculated by measuring the integrated emission area of the fluorescent spectra, and referring them to the area measured for Rhodamine B in EtOH after excitation at 510 nm (ΦRho-B=0.70). Quantum yields for the BDM products were then calculated using equation below, where F represents the area of fluorescent emission, n is reflective index of the solvent, and Abs is absorbance at excitation wavelength selected for standards and samples. Emission was integrated from 540 nm to 800 nm.

Structure (SMILES) | λmax (ABS) [1] | λmax (EM) [1] | φ (quantum yield) [2]
COc1ccc(/C=C/C2=[N+]3C(=C(CCN)c4cccn4[B-]3(F)F)C(C)=C2)c(Cl)c1OC [BDM-372] | 561 nm | 578 nm | 0.55
Cc1cc(/C=C/c2ccccc2-c2ccccc2)n2c1C(CCN)=C1C=CC=[N+]1[B-]2(F)F [BDM-40] | 554 nm | 567 nm | 0.53
CC1=CC(/C=C/c2c(C)nn(C)c2C)=[N+]2C1=C(CCN)c1cccn1[B-]2(F)F [BDM-430] | 565 nm | 592 nm | 0.99
Cc1cc(/C=C/c2ccc(N(C)C)cc2)n2c1C(CCN)=C1C=CC=[N+]1[B-]2(F)F [BDM-2] | 607 nm | 685 nm | 0.01
COc1ccc(F)c(/C=C/C2=[N+]3C(=C(CCN)c4cccn4[B-]3(F)F)C(C)=C2)c1 [BDM-245] | 555 nm | 563 nm | 0.32
CCN(CC)c1ccc(/C=C/C2=[N+]3C(=C(CCN)c4cccn4[B-]3(F)F)C(C)=C2)cc1 [BDM-107] | 617 nm | 681 nm | 0.05
CC1=CC(/C=C/c2ccc(OC(F)F)cc2)=[N+]2C1=C(CCN)c1cccn1[B-]2(F)F [BDM-326] | 554 nm | 565 nm | 0.71
CC1=CC(/C=C/c2cccc(N3CCCCC3)c2[N+](=O)[O-])=[N+]2C1=C(CCN)c1cccn1[B-]2(F)F [BDM-356] | 573 nm | 682 nm | 0.03
CC1=CC(/C=C/c2ccc(OC(C)(C)C)cc2)=[N+]2C1=C(CCN)c1cccn1[B-]2(F)F [BDM-75] | 560 nm | 585 nm | 0.53
CCOc1cccc(/C=C/C2=[N+]3C(=C(CCN)c4cccn4[B-]3(F)F)C(C)=C2)c1 [BDM-323] | 556 nm | 570 nm | 0.44
COc1cccc(/C=C/C2=[N+]3C(=C(CCN)c4cccn4[B-]3(F)F)C(C)=C2)c1 [BDM-186] | 553 nm | 564 nm | 0.97
COc1ccc(Oc2ccc(/C=C/C3=[N+]4C(=C(CCN)c5cccn5[B-]4(F)F)C(C)=C3)cc2)cc1 [BDM-178] | 561 nm | 577 nm | 0.37
COc1cc(Cl)cc(/C=C/C2=[N+]3C(=C(CCN)c4cccn4[B-]3(F)F)C(C)=C2)c1OC [BDM-282] | 558 nm | 565 nm | 0.19
CC1=CC(/C=C/c2cccc(C=O)c2)=[N+]2C1=C(CCN)c1cccn1[B-]2(F)F [BDM-391] | 554 nm | 563 nm | 0.31
CC1=CC(/C=C/c2ccc3c(c2)OCO3)=[N+]2C1=C(CCN)c1cccn1[B-]2(F)F [BDM-139] | 564 nm | 584 nm | 0.55
CC1=CC(/C=C/c2ccc(Oc3ccc(C(C)(C)C)cc3)cc2)=[N+]2C1=C(CCN)c1cccn1[B-]2(F)F [BDM-435] | 555 nm | 565 nm | 0.39
Cc1cc(/C=C/c2ccco2)n2c1C(CCN)=C1C=CC=[N+]1[B-]2(F)F [BDM-22] | 567 nm | 584 nm | 0.14
CC1=CC(/C=C/c2ccc(Oc3ccccc3)cc2)=[N+]2C1=C(CCN)c1cccn1[B-]2(F)F [BDM-101] | 559 nm | 576 nm | 0.66
COc1ccc(/C=C/C2=[N+]3C(=C(CCN)c4cccn4[B-]3(F)F)C(C)=C2)cc1F [BDM-314] | 556 nm | 570 nm | 0.10
COc1cc(/C=C/C2=[N+]3C(=C(CCN)c4cccn4[B-]3(F)F)C(C)=C2)cc(Br)c1OC [BDM-259] | 559 nm | 573 nm | 0.35
CCCCc1ccc(/C=C/C2=[N+]3C(=C(CCN)c4cccn4[B-]3(F)F)C(C)=C2)cc1 [BDM-263] | 559 nm | 571 nm | 0.26
CSc1ccc(/C=C/c2cc(C)c3n2[B-](F)(F)[N+]2=CC=CC2=C3CCN)cc1 [BDM-18] | 567 nm | 588 nm | 0.33
COc1c(/C=C/C2=[N+]3C(=C(CCN)c4cccn4[B-]3(F)F)C(C)=C2)cc(C(C)(C)C)cc1C(C)(C)C [BDM-325] | 557 nm | 573 nm | 0.47
COc1cc(Cl)cc(/C=C/C2=[N+]3C(=C(CCN)c4cccn4[B-]3(F)F)C(C)=C2)c1O [BDM-275] | 562 nm |  | 0.05

Structure (SMILES) | λmax (ABS) [1] | λmax (EM) [1] | φ (quantum yield) [2]
COc1ccc(/C=C/C2=[N+]3C(=C(CCN)c4cccn4[B-]3(F)F)C(C)=C2)cc1OC [BDM-62] | 567 nm | 594 nm | 0.43
CC1=CC(/C=C/c2ccc(Br)cc2)=[N+]2C1=C(CCN)c1cccn1[B-]2(F)F [BDM-409] | 558 nm | 570 nm | 0.12
CCOc1ccccc1/C=C/C1=[N+]2C(=C(CCN)c3cccn3[B-]2(F)F)C(C)=C1 [BDM-336] | 560 nm | 577 nm | 0.58
CC(=O)Nc1ccc(/C=C/C2=[N+]3C(=C(CCN)c4cccn4[B-]3(F)F)C(C)=C2)cc1 [BDM-111] | 566 nm | 589 nm | 0.79
CCc1ccc(/C=C/C2=[N+]3C(=C(CCN)c4cccn4[B-]3(F)F)C(C)=C2)cc1[N+](=O)[O-] [BDM-252] | 556 nm | 569 nm | 0.08
COc1ccc2[nH]cc(/C=C/C3=[N+]4C(=C(CCN)c5cccn5[B-]4(F)F)C(C)=C3)c2c1 [BDM-93] | 592 nm | 653 nm | 0.06
CC1=CC(/C=C/c2ccc(N(C)C)c3ccccc23)=[N+]2C1=C(CCN)c1cccn1[B-]2(F)F [BDM-377] | 586 nm |  | 0.04
CC1=CC(/C=C/c2ccccc2Oc2ccc(F)cc2)=[N+]2C1=C(CCN)c1cccn1[B-]2(F)F [BDM-341] | 556 nm | 570 nm | 0.37
CC1=CC(/C=C/c2cccc3c2OCO3)=[N+]2C1=C(CCN)c1cccn1[B-]2(F)F [BDM-231] | 558 nm | 568 nm | 0.17
CC1=CC(/C=C/c2ccccc2)=[N+]2C1=C(CCN)c1cccn1[B-]2(F)F [BDM-27] | 553 nm | 566 nm | 0.39
CC1=CC(/C=C/c2csc3ccccc23)=[N+]2C1=C(CCN)c1cccn1[B-]2(F)F [BDM-37] | 566 nm | 588 nm | 0.15
CC1=CC(/C=C/c2ccc(F)c(Oc3ccccc3)c2)=[N+]2C1=C(CCN)c1cccn1[B-]2(F)F [BDM-311] | 556 nm | 565 nm | 0.21
CC1=CC(/C=C/c2cc3ccccc3c3ccccc23)=[N+]2C1=C(CCN)c1cccn1[B-]2(F)F [BDM-440] | 563 nm | 589 nm | 0.37
COc1cccc(Oc2ccc(/C=C/C3=[N+]4C(=C(CCN)c5cccn5[B-]4(F)F)C(C)=C3)cc2)c1 [BDM-298] | 559 nm | 568 nm | 0.32
CC1=CC(/C=C/c2c3ccccc3c(C)c3ccccc23)=[N+]2C1=C(CCN)c1cccn1[B-]2(F)F [BDM-340] | 534 nm | 541 nm | 0.11
CC1=CC(/C=C/c2ccc(C)s2)=[N+]2C1=C(CCN)c1cccn1[B-]2(F)F [BDM-236] | 574 nm | 594 nm | 0.22
CC1=CC(/C=C/c2ccc(C)c(Cl)c2)=[N+]2C1=C(CCN)c1cccn1[B-]2(F)F [BDM-289] | 559 nm | 570 nm | 0.26
CC1=CC(/C=C/c2ccc(OCc3ccc(F)cc3)cc2)=[N+]2C1=C(CCN)c1cccn1[B-]2(F)F [BDM-378] | 563 nm | 585 nm | 0.41
CC1=CC(/C=C/c2cc(OCc3ccccc3)cc(OCc3ccccc3)c2)=[N+]2C1=C(CCN)c1cccn1[B-]2(F)F [BDM-331] | 554 nm | 566 nm | 0.65
Cc1cc(/C=C/c2ccc(-n3ccnc3)cc2)n2c1C(CCN)=C1C=CC=[N+]1[B-]2(F)F [BDM-8] | 561 nm | 575 nm | 0.34
COc1cccc(/C=C/C2=[N+]3C(=C(CCN)c4cccn4[B-]3(F)F)C(C)=C2)c1O [BDM-97] | 561 nm | 572 nm | 0.04
CC1=CC(/C=C/c2ccc(OC(F)(F)F)cc2)=[N+]2C1=C(CCN)c1cccn1[B-]2(F)F [BDM-68] | 551 nm | 561 nm | 0.63
CC1=CC(/C=C/c2ccc(C)cc2)=[N+]2C1=C(CCN)c1cccn1[B-]2(F)F [BDM-208] | 558 nm | 572 nm | 0.27
COc1cc(F)c(/C=C/C2=[N+]3C(=C(CCN)c4cccn4[B-]3(F)F)C(C)=C2)cc1OC [BDM-305] | 567 nm | 587 nm | 0.25
